{
  "source": "ChEMBL document CHEMBL1137641",
  "about": "“Influence of inoculum size on the selection of resistant mutants of Escherichia coli in relation to mutant prevention concentrations of marbofloxacin” (2007)",
  "type_in_all_cases": "functional",
  "key": {"Escherichia coli [1]": {"tested_on": "Escherichia coli", "assay": "Bactericidal activity against marbofloxacin-resistant Escherichia coli ATCC 25922 assessed as final bacterial count using inoculum size of 10^9 CFU/mL inside the mutant selection window for 100% of time"}, "Escherichia coli [2]": {"tested_on": "Escherichia coli", "assay": "Bactericidal activity against marbofloxacin-susceptible Escherichia coli ATCC 25922 assessed as area between the control curve and time kill curve using inoculum size of 10^5 CFU/mL inside the mutant selection window for 0% of time"}, "[3]": {"assay": "Effect on Escherichia coli ATCC 25922 assessed as time at which drug concentration above the mutant prevention concentration at time with in mutant selection window of 100%"}, "Escherichia coli [4]": {"tested_on": "Escherichia coli", "assay": "Antibacterial activity against Escherichia coli ATCC 25922 by microdilution method"}, "Escherichia coli [5]": {"tested_on": "Escherichia coli", "assay": "Bactericidal activity against marbofloxacin-susceptible Escherichia coli ATCC 25922 assessed as final bacterial count using inoculum size of 10^7 CFU/mL inside the mutant selection window for 0% of time"}, "Escherichia coli [6]": {"tested_on": "Escherichia coli", "assay": "Bactericidal activity against marbofloxacin-susceptible Escherichia coli ATCC 25922 assessed as final bacterial count using inoculum size of 10^7 CFU/mL inside the mutant selection window for 25% of time"}, "Escherichia coli [7]": {"tested_on": "Escherichia coli", "assay": "Bactericidal activity against marbofloxacin-susceptible Escherichia coli ATCC 25922 assessed as area between the control curve and time kill curve using inoculum size of 10^7 CFU/mL inside the mutant selection window for 100% of time"}, "[8]": {"assay": "T>MIC in Escherichia coli ATCC 25922 at time with in mutant selection window of 0%"}, "Escherichia coli [9]": {"tested_on": "Escherichia coli", "assay": "Bactericidal activity against marbofloxacin-resistant Escherichia coli ATCC 25922 assessed as area between the control curve and time kill curve using inoculum size of 10^5 CFU/mL inside the mutant selection window for 100% of time"}, "Escherichia coli [10]": {"tested_on": "Escherichia coli", "assay": "Bactericidal activity against marbofloxacin-susceptible Escherichia coli ATCC 25922 assessed as area between the control curve and time kill curve using inoculum size of 10^9 CFU/mL inside the mutant selection window for 0% of time"}, "Escherichia coli [11]": {"tested_on": "Escherichia coli", "assay": "Bactericidal activity against marbofloxacin-susceptible Escherichia coli ATCC 25922 assessed as final bacterial count using inoculum size of 10^9CFU/mL inside the mutant selection window for 25% of time"}, "[12]": {"assay": "T>MIC in Escherichia coli ATCC 25922 at time with in mutant selection window of 25%"}, "Escherichia coli [13]": {"tested_on": "Escherichia coli", "assay": "Antibacterial activity against Escherichia coli ATCC 25922 assessed as mutant prevention concentration after 24 hrs by agar dilution method"}, "Escherichia coli [14]": {"tested_on": "Escherichia coli", "assay": "Bactericidal activity against marbofloxacin-susceptible Escherichia coli ATCC 25922 assessed as final bacterial count using inoculum size of 10^9CFU/mL inside the mutant selection window for 0% of time"}, "Escherichia coli [15]": {"tested_on": "Escherichia coli", "assay": "Bactericidal activity against marbofloxacin-susceptible Escherichia coli ATCC 25922 assessed as area between the control curve and time kill curve using inoculum size of 10^9 CFU/mL inside the mutant selection window for 25% of time"}, "Escherichia coli [16]": {"tested_on": "Escherichia coli", "assay": "Bactericidal activity against marbofloxacin-susceptible Escherichia coli ATCC 25922 assessed as final bacterial count using inoculum size of 10^5 CFU/mL inside the mutant selection window for 100% of time"}, "Escherichia coli [17]": {"tested_on": "Escherichia coli", "assay": "Bactericidal activity against marbofloxacin-susceptible Escherichia coli ATCC 25922 assessed as area between the control curve and time kill curve using inoculum size of 10^7 CFU/mL inside the mutant selection window for 0% of time"}, "Escherichia coli [18]": {"tested_on": "Escherichia coli", "assay": "Bactericidal activity against marbofloxacin-susceptible Escherichia coli ATCC 25922 assessed as area between the control curve and time kill curve using inoculum size of 10^5 CFU/mL inside the mutant selection window for 100% of time"}, "Escherichia coli [19]": {"tested_on": "Escherichia coli", "assay": "Bactericidal activity against marbofloxacin-susceptible Escherichia coli ATCC 25922 assessed as final bacterial count using inoculum size of 10^5 CFU/mL inside the mutant selection window for 25% of time"}, "[20]": {"assay": "T>MIC in Escherichia coli ATCC 25922 at time with in mutant selection window of 100%"}, "Escherichia coli [21]": {"tested_on": "Escherichia coli", "assay": "Bactericidal activity against marbofloxacin-resistant Escherichia coli ATCC 25922 assessed as final bacterial count using inoculum size of 10^7 CFU/mL inside the mutant selection window for 100% of time"}, "[22]": {"assay": "Effect on Escherichia coli ATCC 25922 assessed as time at which drug concentration above the mutant prevention concentration at time with in mutant selection window of 25%"}, "Escherichia coli [23]": {"tested_on": "Escherichia coli", "assay": "Bactericidal activity against marbofloxacin-resistant Escherichia coli ATCC 25922 assessed as area between the control curve and time kill curve using inoculum size of 10^7 CFU/mL inside the mutant selection window for 100% of time"}, "Escherichia coli [24]": {"tested_on": "Escherichia coli", "assay": "Bactericidal activity against marbofloxacin-susceptible Escherichia coli ATCC 25922 assessed as area between the control curve and time kill curve using inoculum size of 10^7 CFU/mL inside the mutant selection window for 25% of time"}, "Escherichia coli [25]": {"tested_on": "Escherichia coli", "assay": "Bactericidal activity against marbofloxacin-susceptible Escherichia coli ATCC 25922 assessed as final bacterial count using inoculum size of 10^5 CFU/mL inside the mutant selection window for 0% of time"}, "[26]": {"assay": "Effect on Escherichia coli ATCC 25922 assessed as time at which drug concentration above the mutant prevention concentration at time with in mutant selection window of 0%"}, "Escherichia coli [27]": {"tested_on": "Escherichia coli", "assay": "Bactericidal activity against marbofloxacin-resistant Escherichia coli ATCC 25922 assessed as final bacterial count using inoculum size of 10^5 CFU/mL inside the mutant selection window for 100% of time"}, "Escherichia coli [28]": {"tested_on": "Escherichia coli", "assay": "Bactericidal activity against marbofloxacin-resistant Escherichia coli ATCC 25922 assessed as area between the control curve and time kill curve using inoculum size of 10^9 CFU/mL inside the mutant selection window for 100% of time"}, "Escherichia coli [29]": {"tested_on": "Escherichia coli", "assay": "Bactericidal activity against marbofloxacin-susceptible Escherichia coli ATCC 25922 assessed as final bacterial count using inoculum size of 10^7 CFU/mL inside the mutant selection window for 100% of time"}, "Escherichia coli [30]": {"tested_on": "Escherichia coli", "assay": "Bactericidal activity against marbofloxacin-susceptible Escherichia coli ATCC 25922 assessed as area between the control curve and time kill curve using inoculum size of 10^5 CFU/mL inside the mutant selection window for 25% of time"}},
  "data": [
    {"smiles": "CN1CCN(c2c(F)cc3c(=O)c(C(=O)O)cn4c3c2OCN4C)CC1", "note": "[MARBOFLOXACIN]", "values": [
      {"measurement": "CFU", "setting": "Escherichia coli [1]", "result": 5, "unit": "×10⁷ /ml"},
      {"measurement": "ABBC", "setting": "Escherichia coli [2]", "result": 54, "unit": "log10CFU/ml/hr"},
      {"measurement": "Activity", "setting": "[3]", "result": 0, "unit": "%"},
      {"measurement": "MIC", "setting": "Escherichia coli [4]", "result": 8, "unit": "ng/mL"},
      {"measurement": "CFU", "setting": "Escherichia coli [5]", "result": 2, "unit": "×10⁴ /ml"},
      {"measurement": "CFU", "setting": "Escherichia coli [6]", "result": 8, "unit": "×10⁴ /ml"},
      {"measurement": "ABBC", "setting": "Escherichia coli [7]", "result": 60, "unit": "log10CFU/ml/hr"},
      {"measurement": "T>MIC", "setting": "[8]", "result": 100, "unit": "%"},
      {"measurement": "ABBC", "setting": "Escherichia coli [9]", "result": 51, "unit": "log10CFU/ml/hr"},
      {"measurement": "ABBC", "setting": "Escherichia coli [10]", "result": 51, "unit": "log10CFU/ml/hr"},
      {"measurement": "CFU", "setting": "Escherichia coli [11]", "result": 3, "unit": "×10⁴ /ml"},
      {"measurement": "T>MIC", "setting": "[12]", "result": 100, "unit": "%"},
      {"measurement": "Activity", "setting": "Escherichia coli [13]", "result": 0.256, "unit": "µg/mL"},
      {"measurement": "CFU", "setting": "Escherichia coli [14]", "result": 1, "unit": "×10⁴ /ml"},
      {"measurement": "ABBC", "setting": "Escherichia coli [15]", "result": 53, "unit": "log10CFU/ml/hr"},
      {"measurement": "CFU", "setting": "Escherichia coli [16]", "result": 2, "unit": "×10⁶ /ml"},
      {"measurement": "ABBC", "setting": "Escherichia coli [17]", "result": 57, "unit": "log10CFU/ml/hr"},
      {"measurement": "ABBC", "setting": "Escherichia coli [18]", "result": 53, "unit": "log10CFU/ml/hr"},
      {"measurement": "CFU", "setting": "Escherichia coli [19]", "result": 6, "unit": "×10⁴ /ml"},
      {"measurement": "T>MIC", "setting": "[20]", "result": 100, "unit": "%"},
      {"measurement": "CFU", "setting": "Escherichia coli [21]", "result": 6, "unit": "×10⁸ /ml"},
      {"measurement": "Activity", "setting": "[22]", "result": 75, "unit": "%"},
      {"measurement": "ABBC", "setting": "Escherichia coli [23]", "result": 56, "unit": "log10CFU/ml/hr"},
      {"measurement": "ABBC", "setting": "Escherichia coli [24]", "result": 56, "unit": "log10CFU/ml/hr"},
      {"measurement": "CFU", "setting": "Escherichia coli [25]", "result": 7, "unit": "×10³ /ml"},
      {"measurement": "Activity", "setting": "[26]", "result": 100, "unit": "%"},
      {"measurement": "CFU", "setting": "Escherichia coli [27]", "result": 1, "unit": "×10⁸ /ml"},
      {"measurement": "ABBC", "setting": "Escherichia coli [28]", "result": 44, "unit": "log10CFU/ml/hr"},
      {"measurement": "CFU", "setting": "Escherichia coli [29]", "result": 7, "unit": "×10⁴ /ml"},
      {"measurement": "ABBC", "setting": "Escherichia coli [30]", "result": 54, "unit": "log10CFU/ml/hr"}
    ]}
  ]
}
